Experimental data published in ChEMBL document CHEMBL3813680, “Discovery of a 2-hydroxyacetophenone derivative as an outstanding linker to enhance potency and β-selectivity of liver X receptor agonist” (Bioorg Med Chem, 2016).
Calls of active or inactive are those of the source. The rule behind the calls is not given here.

Assays:
CHO-K1 = experiment: Selectivity ratio of EC50 for GAL4 fused LXRalpha (unknown origin) transfected in CHOK1 cells to EC50 for GAL4 fused LXRbeta-LBD (unknown origin) transfected in CHOK1 cells; type: cell-based; conditions: Homo sapiens
[1] = biological target: T1, Oxysterols receptor LXR-beta (Homo sapiens) (UniProt P55055); experiment: Agonist activity at GAL4 fused LXRbeta-LBD (unknown origin) transfected in CHOK1 cells at 10 uM after 24 hrs by luciferase reporter gene assay in presence of T0901317; type: cell-based; conditions: CHO-K1
T1 sequence (whole entry): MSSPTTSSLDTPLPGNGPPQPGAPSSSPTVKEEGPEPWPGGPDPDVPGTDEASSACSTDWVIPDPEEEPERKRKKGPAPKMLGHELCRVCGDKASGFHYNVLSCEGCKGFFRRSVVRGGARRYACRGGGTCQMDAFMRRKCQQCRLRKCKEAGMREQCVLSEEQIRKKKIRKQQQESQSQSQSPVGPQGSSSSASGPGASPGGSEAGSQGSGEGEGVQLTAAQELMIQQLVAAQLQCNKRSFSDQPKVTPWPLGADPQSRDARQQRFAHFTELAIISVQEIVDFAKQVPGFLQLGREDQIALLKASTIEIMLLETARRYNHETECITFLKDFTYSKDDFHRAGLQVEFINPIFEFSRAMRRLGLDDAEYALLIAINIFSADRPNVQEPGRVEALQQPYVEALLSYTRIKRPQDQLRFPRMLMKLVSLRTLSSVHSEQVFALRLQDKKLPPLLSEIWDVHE

[2] = biological target: T2, Oxysterols receptor LXR-alpha (Homo sapiens, UniProt Q13133); experiment: Agonist activity at GAL4 fused LXRalpha (unknown origin) transfected in CHOK1 cells after 24 hrs by luciferase reporter gene assay
T2 sequence (Q13133 whole entry): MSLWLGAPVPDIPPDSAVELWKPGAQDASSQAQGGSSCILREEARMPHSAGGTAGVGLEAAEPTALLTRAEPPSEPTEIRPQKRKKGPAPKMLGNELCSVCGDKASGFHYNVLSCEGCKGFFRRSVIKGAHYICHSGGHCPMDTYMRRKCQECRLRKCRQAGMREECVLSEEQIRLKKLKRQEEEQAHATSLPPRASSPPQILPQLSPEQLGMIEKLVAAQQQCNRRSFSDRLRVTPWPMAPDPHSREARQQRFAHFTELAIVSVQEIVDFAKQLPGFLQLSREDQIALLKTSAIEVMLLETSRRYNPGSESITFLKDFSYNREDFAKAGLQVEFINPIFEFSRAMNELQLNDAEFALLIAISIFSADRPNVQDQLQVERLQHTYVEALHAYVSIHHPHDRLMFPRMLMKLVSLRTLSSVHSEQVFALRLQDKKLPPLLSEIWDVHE

[3] = biological target: T3, Oxysterols receptor LXR-alpha (Homo sapiens) (UniProt Q13133); experiment: Agonist activity at GAL4 fused LXRalpha (unknown origin) transfected in CHOK1 cells at 10 uM after 24 hrs by luciferase reporter gene assay in presence of T0901317; type: cell-based; conditions: CHO-K1
T3 sequence (whole entry): T2 sequence (Q13133 whole entry)

[4] = biological target: T4, Oxysterols receptor LXR-beta (Homo sapiens, UniProt P55055); experiment: Agonist activity at GAL4 fused LXRbeta-LBD (unknown origin) transfected in CHOK1 cells after 24 hrs by luciferase reporter gene assay
T4 sequence (P55055 whole entry): T1 sequence (whole entry)

[5] = biological target: T3, Oxysterols receptor LXR-alpha (Homo sapiens); experiment: Agonist activity at GAL4 fused LXRalpha (unknown origin) transfected in CHOK1 cells at 10 uM after 24 hrs by luciferase reporter gene assay; type: cell-based; conditions: CHO-K1
[6] = biological target: T1, Oxysterols receptor LXR-beta (Homo sapiens); experiment: Agonist activity at GAL4 fused LXRbeta-LBD (unknown origin) transfected in CHOK1 cells at 10 uM after 24 hrs by luciferase reporter gene assay; type: cell-based; conditions: CHO-K1
[7] = Intrinsic clearance in human liver microsomes at 1 umol/L; type: ADME; conditions: read-out: CLH
[8] = Intrinsic clearance in mouse liver microsomes at 1 umol/L; type: ADME; conditions: read-out: CLH
[9] = Intrinsic clearance in hamster liver microsomes at 1 umol/L; type: ADME; conditions: cricetinae, read-out: CLH
[10] = AUC in mouse plasma at 100 mg/kg, po measured up to 24 hrs by HPLC-LC-MS/MS analysis; type: ADME, organism-based; parameters: dose 100 mg/kg, time < 24 hr, route oral
[11] = Cmax in mouse plasma at 100 mg/kg, po measured up to 24 hrs by HPLC-LC-MS/MS analysis; type: ADME, organism-based; parameters: dose 100 mg/kg, route oral
Mus musculus [12] = experiment: Antiatherosclerosis activity in LDL receptor knock out mouse model assessed as decrease in area of lipid accumulation at 10 mg/kg, po by HPLC analysis relative to control; type: functional; parameters: scale not given: the % may be the effect or the level left
Mus musculus [13] = experiment: Antiatherosclerosis activity in LDL receptor knock out mouse model assessed as decrease in TC levels at 10 mg/kg, po by HPLC analysis relative to control; type: functional; parameters: scale not given: the % may be the effect or the level left
Mus musculus [14] = experiment: Antiatherosclerosis activity in LDL receptor knock out mouse model assessed as […] in HDL-C levels at 10 mg/kg, po by HPLC analysis relative to control; type: functional; parameters: scale not given: the % may be the effect or the level left
Mus musculus [15] = experiment: Antiatherosclerosis activity in LDL receptor knock out mouse model assessed as decrease in LDL-C levels at 10 mg/kg, po by HPLC analysis relative to control; type: functional; parameters: scale not given: the % may be the effect or the level left
Mus musculus [16] = experiment: Antiatherosclerosis activity in LDL receptor knock out mouse model assessed as increase in TG levels at 10 mg/kg, po by HPLC analysis relative to control; type: functional

| Emax [1] | EC50 [2] | Emax [3] | EC50 [4] | Activity [5] | SMILES | Ratio EC50 (CHO-K1) | also measured |
| --- | --- | --- | --- | --- | --- | --- | --- |
| 615% | 3140 nM | 53% | 700 nM |  | CCCc1cc(C(O)(C(F)(F)F)C(F)(F)F)ccc1Oc1ccc(CCN2C(=O)NC(C)(c3ccc(OC(C)C)cc3)C2=O)c(C)c1 (stereo not drawn) | 4.89 |  |
| 126% | 2890 nM | 23% | 2850 nM |  | CCCc1cc(C(O)(C(F)(F)F)C(F)(F)F)ccc1Oc1cccc(CCN2C(=O)NC(C)(c3ccc(OC(C)C)cc3)C2=O)c1 (stereo not drawn) | 1.01 |  |
| 534% |  | 0% | 1660 nM | inactive | CCCc1cc(C(O)(C(F)(F)F)C(F)(F)F)ccc1Oc1ccc(CCN2C(=O)NC(C)(c3ccc(OC(C)C)cc3)C2=O)c(OC)c1 (stereo not drawn) | 6.02 |  |
| 284% |  | 1% | 2870 nM | inactive | CCCc1cc(C(O)(C(F)(F)F)C(F)(F)F)ccc1Oc1ccc(CCN2C(=O)NC(C)(c3ccc(OC(C)C)cc3)C2=O)c(O)c1 (stereo not drawn) | 3.48 |  |
| 223% |  | 1% | 1880 nM | inactive | CCCc1cc(C(O)(C(F)(F)F)C(F)(F)F)ccc1Oc1ccc(CCN2C(=O)NC(C)(c3ccc(OC(C)C)cc3)C2=O)cc1 (stereo not drawn) | > 5.32 |  |
| 429% | 1960 nM | 53% | 500 nM |  | CCCc1cc(C(O)(C(F)(F)F)C(F)(F)F)ccc1Oc1cccc(CN2C(=O)NC(C)(c3ccc(OC(C)C)cc3)C2=O)c1 (stereo not drawn) | 3.92 |  |
| 306% | 3740 nM | 38% | 360 nM |  | CCCc1cc(C(O)(C(F)(F)F)C(F)(F)F)ccc1Oc1ccc(C(=O)CN2C(=O)NC(C)(c3ccc(OC(C)C)cc3)C2=O)c(OC)c1 (stereo not drawn) | 10.4 |  |

More lines, now with the values behind:

| SMILES | Emax [1] | EC50 [2] | Emax [3] | EC50 [4] | Activity [5] | Ratio EC50 (CHO-K1) | also measured |
| --- | --- | --- | --- | --- | --- | --- | --- |
| CCCc1cc(C(O)(C(F)(F)F)C(F)(F)F)cc(CCC)c1OCC#CCN1C(=O)NC(C)(c2ccc(OC(C)C)cc2)C1=O (stereo not drawn) | 149% | 860 nM | 27% | 610 nM |  | 1.41 |  |
| CCCc1cc(C(O)(C(F)(F)F)C(F)(F)F)ccc1Oc1ccc(C(=O)CN2C(=O)NC(C)(c3ccc(OC(C)C)cc3)C2=O)c(C)c1 (stereo not drawn) | 264% | 400 nM | 71% | 64 nM |  | 6.25 |  |
| CCCc1cc(C(O)(C(F)(F)F)C(F)(F)F)ccc1Oc1ccc(C(=O)CN2C(=O)NC(C)(c3ccc(OC(C)C)cc3)C2=O)cc1 (stereo not drawn) | 236% | 360 nM | 46% | 120 nM |  | 3 |  |
| CCCc1cc(C(O)(C(F)(F)F)C(F)(F)F)ccc1Oc1ccc(C(=O)CN2C(=O)NC(C)(c3ccc(OC(C)C)cn3)C2=O)c(O)c1 (single isomer, unassigned; (+)) [listing 1 of 2 here] |  |  |  | 2900 nM |  |  |  |
| CCCc1cc(C(O)(C(F)(F)F)C(F)(F)F)cc(CCC)c1OC/C=C\CN1C(=O)NC(C)(c2ccc(OC(C)C)cc2)C1=O (stereo not drawn) | 1% |  | 0% |  | inactive |  | Activity [6]: inactive |
| CCCc1cc(C(O)(C(F)(F)F)C(F)(F)F)ccc1Oc1ccc(C(=O)CN2C(=O)NC(C)(c3ccc(OC(C)C)cc3)C2=O)c(O)c1 (stereo not drawn) | 348% | 340 nM | 55% | 110 nM |  | 3.09 | microsomal CLint at 1 µM [7]: 12 µL/min/mg; microsomal CLint at 1 µM [8]: 76 µL/min/mg; microsomal CLint at 1 µM [9]: 27 µL/min/mg |
| CCCc1cc(C(O)(C(F)(F)F)C(F)(F)F)cc(CCC)c1OCCCCN1C(=O)NC(C)(c2ccc(OC(C)C)cc2)C1=O (racemic) |  |  |  |  |  |  | AUC at 24 h [10]: 3420 ng·h/mL; Cmax [11]: 406 ng/mL |
| CCCc1cc(C(O)(C(F)(F)F)C(F)(F)F)cc(CCC)c1OC/C=C/CN1C(=O)NC(C)(c2ccc(OC(C)C)cc2)C1=O (stereo not drawn) | 182% | 1230 nM | 40% | 800 nM |  | 1.54 |  |
| CCCc1cc(C(O)(C(F)(F)F)C(F)(F)F)ccc1Oc1ccc(C(=O)CN2C(=O)NC(C)(c3ccc(OC(C)C)cn3)C2=O)c(O)c1 (racemic) [listing 1 of 2 here] |  | 330 nM |  | 58 nM |  |  | microsomal CLint at 1 µM [7]: 7 µL/min/mg; microsomal CLint at 1 µM [8]: 24 µL/min/mg; microsomal CLint at 1 µM [9]: 11 µL/min/mg |
| CCCc1cc(C(O)(C(F)(F)F)C(F)(F)F)ccc1Oc1ccc(C(=O)CN2C(=O)NC(C)(c3ccc(OC(C)C)cn3)C2=O)c(O)c1 (racemic) [listing 2 of 2 here] | 329% |  | 68% |  |  | 5.69 |  |
| CCCc1cc(C(O)(C(F)(F)F)C(F)(F)F)ccc1Oc1ccc(C(O)CN2C(=O)NC(C)(c3ccc(OC(C)C)cc3)C2=O)cc1 (stereo not drawn) | 176% |  | 5% | 2330 nM | inactive | 4.29 |  |
| CCCc1cc(C(O)(C(F)(F)F)C(F)(F)F)ccc1Oc1ccc(C(=O)CN2C(=O)NC(C)(c3ccc(OC(C)C)cn3)C2=O)c(O)c1 (single isomer, unassigned; (-)) | 255% |  | 164% |  |  |  |  |
| CCCc1cc(C(O)(C(F)(F)F)C(F)(F)F)ccc1Oc1ccc(C(=O)CN2C(=O)NC(C)(c3ccc(OC(C)C)cn3)C2=O)c(O)c1 (single isomer, unassigned; (+)) [listing 2 of 2 here] | 269% |  | 25% |  | inactive |  |  |
| CCCc1cc(C(O)(C(F)(F)F)C(F)(F)F)ccc1Oc1ccc(CN2C(=O)NC(C)(c3ccc(OC(C)C)cc3)C2=O)cc1 (stereo not drawn) | 22% |  | 0% | 1810 nM | inactive | > 5.52 |  |
| O=S(=O)(c1ccccc1)N(CC(F)(F)F)c1ccc(C(O)(C(F)(F)F)C(F)(F)F)cc1 [T091317] |  |  |  |  |  |  | Activity (Mus musculus [12]): 40%; Activity (Mus musculus [13]): 96%; Activity (Mus musculus [14]): 47%; Activity (Mus musculus [15]): 55%; Activity (Mus musculus [16]): 465% |
